# Test results: patent US20240316141A1, “The Use of Thiourea and Thiourea Derivatives As Potentiators of Antibacterial Activity of Peptoids” (The Board of Trustees of the Leland Stanford Junior …, priority 2021, published 2024)
# Key:
# [1] = tested on: bacterial growth; assay: MIC of different peptoids in the presence and absence of thiourea; format: cell-based; conditions: presence vs absence of thiourea; FIGS. 6A-6E
# [2] = tested on: bacterial growth; assay: MIC of antimicrobial peptide in the presence and absence of thiourea, 24 hour incubation; format: cell-based; conditions: presence vs absence of thiourea
# Method: FIG. 7. The minimum inhibitory concentration (MIC) of an antimicrobial peptide (LL-37) in the presence and absence of thiourea was examined. MIC was defined as the lowest concentration of an antimicrobial peptide that will inhibit the bacterial growth (i.e., increasing absorbance at 600 nm) after a 24 hour incubation.
# [3] = tested on: bacterial growth; assay: MIC of peptoid in the presence and absence of urea, 24 hour incubation; format: cell-based; conditions: MIC of TM5 in presence vs absence of urea
# Method: FIG. 8. The minimum inhibitory concentration (MIC) of peptoid (TM5) in the presence and absence of urea was examined. MIC was defined as the lowest concentration of peptoid that will inhibit the bacterial growth (i.e., increasing absorbance at 600 nm) after a 24 hour incubation.
# [4] = tested on: Klebsiella pneumoniae; assay: MIC of peptoid in the presence and absence of thiourea, 24 h incubation, absorbance at 600 nm; format: cell-based; conditions: Klebsiella pneumoniae (ciprofloxacin-resistant), presence vs absence of thiourea
# Method: FIG. 2. The minimum inhibitory concentration (MIC) of peptoid (TM5) in the presence and absence of thiourea was examined. MIC was defined as the lowest concentration of peptoid that will inhibit the bacterial growth (i.e., increasing absorbance at 600 nm) after 24 h incubation.
# [5] = tested on: Staphylococcus aureus; assay: as above; format: cell-based; conditions: presence vs absence of thiourea
# Method: FIG. 3. The minimum inhibitory concentration (MIC) of peptoid (TM5) in the presence and absence of thiourea was examined. MIC was defined as the lowest concentration of peptoid that will inhibit the bacterial growth (i.e., increasing absorbance at 600 nm) after 24 h incubation.
# [6] = tested on: PA01 ofloxacin induced persister cells; assay: Eradication of ofloxacin induced persister cells; format: cell-based, Pseudomonas aeruginosa; conditions: PA01 persister cells from stationary phase culture treated with ofloxacin 5 μg/ml for 24 h
# [7] = tested on: Pseudomonas aeruginosa; assay: MIC of peptoid in the presence and absence of thiourea, 24 h incubation, absorbance at 600 nm; format: cell-based; conditions: presence vs absence of thiourea
# Method: FIG. 1. The minimum inhibitory concentration (MIC) of peptoid (TM5) in the presence and absence of thiourea was examined. MIC was defined as the lowest concentration of peptoid that will inhibit the bacterial growth (i.e., increasing absorbance at 600 nm) after 24 h incubation.
compound,measurement,setting,value
H—(NLys-Nspe(p-Br)-Nspe(p-Br))2—NH2 [TM4],effect of thiourea on antimicrobial activity (MIC) of different peptoids,[1],increases antimicrobial activity
LL-37: antimicrobial peptide (LL-37),synergy of thiourea with antimicrobial peptide (MIC),[2],did not synergize
H-Ntridec-(NLys-Nspe-Nspe(p-Br))2-NLys-NH2 [TM20],effect of thiourea on antimicrobial activity (MIC) of different peptoids,[1],increases antimicrobial activity
NC(N)=O [urea],synergy of urea with peptoid TM5 (MIC),[3],did not synergize
H—(NLys-Nspe-Nspe)3-NLys-Nspe-NLys-NH2 [TM16],effect of thiourea on antimicrobial activity (MIC) of different peptoids,[1],increases antimicrobial activity
H-Ntridec-NLys-Nspe-Nspe-NLys-NH2 [TM5],effect of thiourea on antimicrobial activity (MIC) of different peptoids,[1],increases antimicrobial activity
same,effect of thiourea on minimum inhibitory concentration (MIC) / antimicrobial activity of peptoid,[4],increases antimicrobial activity
same,effect of thiourea on minimum inhibitory concentration (MIC) / antimicrobial activity of peptoid,[5],increases antimicrobial activity
same,effect of thiourea on persister eradication capability,[6],enhance the persister eradication capability
same,effect of thiourea on minimum inhibitory concentration (MIC) / antimicrobial activity of peptoid,[7],increases antimicrobial activity
